Data from patent US7947854B2, “Bis-cationic compounds and use thereof” (The University of Sydney, priority 2003, dated 2011).
Marks after values point to notes of the source that are not given here.

Columns and labels:
Format in all cases: biochemical, Cryptococcus neoformans H99
Conditions in all cases: modifier 10 mM (Triton X-100 0.1% w/v)
[1] = test system: membrane-associated phospholipase B (LPL/LPTA activities); assay: Radiometric assay, membrane-associated LPL/LPTA activities
Procedure: (§1) Fungal isolates and media. […] Isolate H99 was kindly supplied by Dr. Gary Cox (Duke University Medical Center, Durham, N.C., USA), and subcultured onto Sabouraud dextrose agar (SDA) at 30° C.
(§2) Cellular disruption to prepare membrane and cytosolic fractions. The cell pellet from the preparation of the supernatant, above, was also frozen at −70° C. After washing twice with imidazole buffer, it was disrupted in the presence of a protease inhibitor cocktail (P 8215 for fungal and yeast cells; 4-(2-aminoethyl)benzenesulfonyl fluoride hydrochloride, 100 mM, 1,10-phenanthroline, 500 mM, pepstatin A, 2.2 mM, E-64, 1.4 mM; Sigma) in a MiniBeadbeater-8 Cell Disrupter (MBB-8; Daintree Scientific, Tasmania, Australia) for three cycles of 1 min, alternating with a 1 min cooling period on ice. The homogenate was centrifuged at 14,000 g for 15 min to obtain the membrane (pellet) and the cytosolic (supernatant) fractions.
(§3) Secreted LPL and LPTA activities were measured simultaneously in a reaction mixture containing 1-[^14C]palmitoyl lyso-PC (25,000 dpm) and carrier lyso-PC (final concentration 200 μM) in assay buffer. The reaction time was […] with 1 μg of total protein and LPL activity was measured by the rate of loss of 1-[^14C]palmitoyl lyso-PC with release of radiolabelled fatty acids. LPTA activity was estimated from the rate of formation of radiolabelled PC.
(§4) All reactions were terminated by adding 0.5 mL of chloroform:methanol (2:1 v/v). The reaction products were extracted by the method as disclosed in Bligh, E. C. and W. J. Dyer. 1959 ‘A rapid method of total lipid extraction and purification.’ Can. J. Biochem. Physiol. 37:911-917, separated by TLC and quantified as previously described. In the case of PLC activity, the TLC plates were developed in petroleum ether (BP 60-80° C.): diethyl ether: acetic acid (90:15:1, v/v/v) instead of chloroform:methanol:water (65:25:4, v/v/v).
(§5) All experiments were carried out in duplicate or triplicate. The effects of pH on the various phospholipase activities were measured using 50 mM final concentration of imidazole-acetate buffer (pH range 3-5), MES buffer (pH range 6-8) and glycine buffer (pH 9-10). Controls for non-enzymic breakdown of substrates were included at all pH values. Cations, Triton X-100 and metal chelators were made up as stock solutions in water and diluted to the final concentration in the appropriate assay buffer.
(§6) Preparation of inhibitors and use in assays. The following compounds were tested (for structures, see FIG. 2): compound 1, 1,12-bis(tributylphosphonium)dodecane dibromide (Fluka AG, Buchs, Switzerland); compound 2, 1,10-bis(tributylammonium)-decane dibromide; compound 3, 1,12-bis(tributylammonium)do-decane dibromide (both synthesised in-house); compound 4, 1,10-bis(trimethylammonium)decane dibromide [“decamethonium”] (Sigma, St. Louis Mo., USA). All compounds were prepared as stock solutions of 700 μM in assay buffer containing 5 mM EDTA, which was then diluted serially with buffer to obtain solutions of 70, 7, 0.7 and 0.07 μM. In each assay, 45 μL of these solutions was used, and the final volume of 125 μL was made up of substrate, enzyme and buffer. The radiometric assay was carried out as above. Inhibition was calculated as the percent of substrates (DPPC or Lyso-PC) remaining in the case of PLB and LPL activities, or of DPPC produced, in the case of the LPTA activity. The amounts converted, or produced, in the inhibitor-free control were normalised to 100%, and the inhibition calculated against it. All assays were done in triplicate.
(§7) Under these conditions only PLB, LPL and LPTA activities (both secreted and cell-associated) were measured. Initially, compounds deemed to be potential inhibitors were assayed at 25 and 250 μM.

[2] = test system: cytosolic phospholipase B (PLB activity); assay: Radiometric assay, cytosolic PLB activity
Procedure: as §1, §2
(§8) Radiometric assay method for phospholipases. Enzyme activities were measured as described previously in a final volume of 125 μL at 37° C. For the determination of secreted PLB activity, carrier dipalmitoyl phosphatidylcholine (DPPC, final concentration 800 μM) and 1,2-di[1-^14C] palmitoyl phosphatidylcholine (20,000 dpm) were dried under nitrogen and suspended in 125 mM imidazole acetate buffer (assay buffer, pH 4.0) by sonication using a Branson 450 sonifier. The reaction time was 22 min, using 1 μg total protein and PLB activity was determined by the rate of decrease of the radiolabelled PC substrate, with appearance of the label in free fatty acid. This assay also simultaneously allows for the determination of phospholipase A, C and D activities. These activities were measured by the appearance of radiolabel from PC in Lyso PC, diacylglycerol and phosphatidic acid, respectively.
as §4, §5
(§9) Preparation of inhibitors and use in assays. The following compounds were tested (for structures, see FIG. 2): compound 1, 1,12-bis(tributylphosphonium)dodecane dibromide (Fluka AG, Buchs, Switzerland); compound 2, 1,10-bis(tributylammonium)-decane dibromide; compound 3, 1,12-bis(tributylammonium)do-decane dibromide (both synthesised in-house); compound 4, 1,10-bis(trimethylammonium)decane dibromide [“decamethonium”] (Sigma, St. Louis Mo., USA). All compounds were prepared as stock solutions of 700 μM in assay buffer containing 5 mM EDTA, which was then diluted serially with buffer to obtain solutions of 70, 7, 0.7 and 0.07 μM. In each assay, 45 μL of these solutions was used, and the final volume of 125 μL was made up of substrate, enzyme and buffer. The radiometric assay was carried out as above.

[3] = test system: cytosolic phospholipase B (LPL/LPTA activities); assay: Radiometric assay, cytosolic LPL/LPTA activities
Procedure: as §1, §2, §3, §4, §5, §6, §7

[4] = test system: membrane-associated phospholipase B (PLB activity); assay: Radiometric assay, membrane-associated PLB activity
Procedure: as §1, §2, §8, §4, §5, §9

Molecule	Membrane-associated LPL activity, percentage of the control ([1]; pH 4.0) [%]	Membrane-associated LPTA activity, percentage of the control ([1]; pH 4.0) [%]	Membrane-associated LPL activity, percentage of the control ([1]; pH 7.0)	Membrane-associated LPTA activity, percentage of the control ([1]; pH 7.0)	Cytosolic PLB activity, percentage of the control ([2]; pH 4.0)	Cytosolic PLB activity, percentage of the control ([2]; pH 7.0)	Cytosolic LPL activity, percentage of the control ([3]; pH 4.0) [%]	Cytosolic LPTA activity, percentage of the control ([3]; pH 4.0) [%]	Cytosolic LPL activity, percentage of the control ([3]; pH 7.0) [%]	Cytosolic LPTA activity, percentage of the control ([3]; pH 7.0) [%]	Membrane-associated PLB activity, percentage of the control ([4]; pH 4.0) [%]	Membrane-associated PLB activity, percentage of the control ([4]; pH 7.0)
O=C(O)CN(CCN(CC(=O)O)CC(=O)O)CC(=O)O [EDTA, ethylenediaminetetraacetic acid]	98	94	96%	100%	100%	100%	100	100	30	32	87	67%
O=C(O)CN(CCOCCOCCN(CC(=O)O)CC(=O)O)CC(=O)O [EGTA, ethyleneglycoldiamine tetraacetic acid]	100	90	100%	100%	100%	163%	86	88	26	29	77	200%
[Cl][Fe]([Cl])[Cl] [FeCl3]	97	75	61* %	45* %	79%	61%	81	78	22	21	92	2* %
[Mg+2] [Magnesium]	97	91	145* %	123* %	100%	477* %	73	70	96	85	79	467* %
Triton X-100	71	52	4* %	2* %	54* %	59%	62	39	0.9	0	19	33* %
